Laboratory results reported in patent US20240246980A1, “MODULATORS OF MAS-RELATED G-PROTEIN RECEPTOR D AND RELATED PRODUCTS AND METHODS” (Escient Pharmaceuticals, Inc., priority 2022, published 2024).

target: human MRGPRD (Homo sapiens, UniProt Q8TDS7); assay: MRGPRD antagonist activity, IP-One HTRF assay in CHO cells stably expressing human MRGPRD (versus 100 μM β-Alanine agonist); type: cell-based
In short: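 Cells (20,000/well, plated overnight) received antagonist and agonist in buffer with 5.7 mM Tris-HCl, 43 mM NaCl and 50 mM LiCl at pH 8. Incubation ran 1 h at 37 °C, then 1 h at room temperature, before IP-1 HTRF detection. IC50 was fitted from the HTRF ratio, and percent antagonism was taken relative to the maximum efficacy response, given as averages with SEM.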

Chain of human MRGPRD (Q8TDS7 whole entry): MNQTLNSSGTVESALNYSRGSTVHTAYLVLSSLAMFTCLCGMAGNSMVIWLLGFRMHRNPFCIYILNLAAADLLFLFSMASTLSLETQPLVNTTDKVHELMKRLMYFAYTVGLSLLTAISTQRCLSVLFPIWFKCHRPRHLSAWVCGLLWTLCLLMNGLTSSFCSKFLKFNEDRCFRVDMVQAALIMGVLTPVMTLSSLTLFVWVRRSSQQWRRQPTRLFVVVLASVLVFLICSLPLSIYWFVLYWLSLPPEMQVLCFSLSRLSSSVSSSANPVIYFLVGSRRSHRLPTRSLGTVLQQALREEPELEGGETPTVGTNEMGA

Structure (SMILES)	IC50
COc1cccc(-c2nc([C@@H]3CCCN(C(=O)Nc4cccc(CO)c4)C3)n3ccccc23)c1 [Compound 6-1, (R)—N-(3-(hydroxymethyl)phenyl)-3-(1-(3-methoxyphenyl)imidazo[1,5-a]pyridin-3-yl)piperidine-1-carboxamide]	< 100 nM
CN(C)c1ccc(NC(=O)N2CCC[C@@H](c3nc(-c4cccc(O)c4)c4ccccn34)C2)cc1 [Compound 10-5]	500 to 1000 nM
CN(C)c1ccc(NC(=O)N2CCC[C@@H](c3nc(-c4ccccc4Cl)c4ccccn34)C2)cc1 [Compound 10-8]	500 to 1000 nM
CCc1cccc(-c2nc([C@@H]3CCCN(C(=O)Nc4ccc(N(C)C)cc4)C3)n3ccccc23)c1 [Compound 10-9]	500 to 1000 nM
CN(C)c1ccc(NC(=O)N2CCC[C@@H](c3nc(-c4cccc(-c5ccccc5)c4)c4ccccn34)C2)cc1 [Compound 10-10]	> 3000 nM
CN(C)c1ccc(NC(=O)N2CCC[C@@H](c3nc(-c4cccc(C(F)(F)F)c4)c4ccccn34)C2)cc1 [Compound 10-11]	500 to 1000 nM
CN(C)c1ccc(NC(=O)N2CCC[C@@H](c3nc(-c4cccc(C#N)c4)c4ccccn34)C2)cc1 [Compound 10-12]	500 to 1000 nM
CC(C)Oc1cccc(-c2nc([C@@H]3CCCN(C(=O)Nc4ccc(N(C)C)cc4)C3)n3ccccc23)c1 [Compound 10-13]	500 to 1000 nM
CN(C)c1ccc(NC(=O)N2CCC[C@@H](c3nc(-c4ccc(OC(F)(F)F)cc4)c4ccccn34)C2)cc1 [Compound 10-14]	1000 to 3000 nM
CN(C)c1ccc(NC(=O)N2CCC[C@H](c3nc(-c4ccccc4)c4ccccn34)C2)cc1 [Compound 10-15]	1000 to 3000 nM
CN(C)c1ccc(NC(=O)N2CCC[C@@H](c3nc(-c4ccc(Cl)cc4)c4ccccn34)C2)cc1 [Compound 10-19]	500 to 1000 nM
CN(C)c1ccc(NC(=O)N2CCC[C@@H](c3nc(-c4ccccc4-c4ccccc4)c4ccccn34)C2)cc1 [Compound 10-20]	> 3000 nM
CN(C)c1ccc(NC(=O)N2CCC[C@@H](c3nc(-c4cccc(Cl)c4)c4ccccn34)C2)cc1 [Compound 10-22]	500 to 1000 nM
CN(C)c1ccc(NC(=O)N2CCC[C@@H](c3nc(-c4ccc(C#N)cc4)c4ccccn34)C2)cc1 [Compound 10-23]	500 to 1000 nM
CN(C)c1ccc(NC(=O)N2CCC[C@@H](c3nc(-c4cccc(OC(F)(F)F)c4)c4ccccn34)C2)cc1 [Compound 10-24]	500 to 1000 nM
CN(C)c1ccc(NC(=O)N2CCC[C@@H](c3nc(-c4ccc5c(c4)CCC5)c4ccccn34)C2)cc1 [Compound 10-26]	500 to 1000 nM
CN(C)c1ccc(NC(=O)N2CCC[C@@H](c3nc(-c4ccc5c(c4)OCO5)c4ccccn34)C2)cc1 [Compound 10-27]	500 to 1000 nM
CN(C)c1ccc(NC(=O)N2CCC[C@H](c3nc(-c4cccc(F)c4)c4ccccn34)C2)cc1 [Compound 10-28]	1000 to 3000 nM
CCc1ccc(-c2nc([C@@H]3CCCN(C(=O)Nc4ccc(N(C)C)cc4)C3)n3ccccc23)cc1 [Compound 10-29]	500 to 1000 nM
CN(C)c1ccc(NC(=O)N2CCC[C@@H](c3nc(-c4ccc(C(F)(F)F)cc4)c4ccccn34)C2)cc1 [Compound 10-30]	1000 to 3000 nM
COc1ccccc1-c1nc([C@H]2CCCN(C(=O)Nc3ccc(N(C)C)cc3)C2)n2ccccc12 [Compound 10-31]	> 3000 nM
CN(C)c1ccc(NC(=O)N2CCC[C@@H](c3nc(-c4ccccc4C(F)F)c4ccccn34)C2)cc1 [Compound 10-32]	1000 to 3000 nM

Structure (SMILES)	IC50
CN(C)c1ccc(NC(=O)N2CCC[C@@H](c3nc(-c4ccc(-c5ccccc5)cc4)c4ccccn34)C2)cc1 [Compound 10-33]	> 3000 nM
CN(C)c1ccc(NC(=O)N2CCC[C@@H](c3nc(-c4ccc5ccccc5c4)c4ccccn34)C2)cc1 [Compound 10-34]	1000 to 3000 nM
CN(C)c1ccc(NC(=O)N2CCC[C@@H](c3nc(-c4ccc(S(C)(=O)=O)cc4)c4ccccn34)C2)cc1 [Compound 10-35]	> 3000 nM
CC(=O)c1ccc(-c2nc([C@@H]3CCCN(C(=O)Nc4ccc(N(C)C)cc4)C3)n3ccccc23)cc1 [Compound 10-36]	500 to 1000 nM
COc1ccccc1-c1nc([C@@H]2CCCN(C(=O)Nc3ccc(N(C)C)cc3)C2)n2ccccc12 [Compound 10-37]	500 to 1000 nM
COc1cccc(-c2nc([C@@H]3CCCN(C(=O)NCCN4CCOCC4)C3)n3ccccc23)c1 [Compound 10-38]	500 to 1000 nM
COC/C=C/c1nc([C@@H]2CCCN(C(=O)Nc3ccc(N(C)C)cc3)C2)n2ccccc12 [Compound 10-39]	> 3000 nM
CNc1cccc(-c2nc([C@@H]3CCCN(C(=O)Nc4ccc(N(C)C)cc4)C3)n3ccccc23)c1 [Compound 10-40]	500 to 1000 nM
COCCCc1nc([C@@H]2CCCN(C(=O)Nc3ccc(N(C)C)cc3)C2)n2ccccc12 [Compound 10-41]	1000 to 3000 nM
CN(C)c1ccc(NC(=O)N2CCC[C@@H](c3nc(-c4cccc(F)c4)c4ccccn34)C2)cc1 [Compound 10-42]	500 to 1000 nM
COc1ccc(-c2nc([C@@H]3CCCN(C(=O)Nc4ccc(N(C)C)cc4)C3)n3ccccc23)cc1 [Compound 10-43]	500 to 1000 nM
CN(C)C(=O)c1ccc(-c2nc([C@@H]3CCCN(C(=O)Nc4ccc(N(C)C)cc4)C3)n3ccccc23)cc1 [Compound 10-46]	> 3000 nM
COc1ccc(-c2nc([C@H]3CCCN(C(=O)Nc4ccc(N(C)C)cc4)C3)n3ccccc23)cc1 [Compound 10-48]	1000 to 3000 nM
CN(C)c1ccc(NC(=O)N2CCC[C@@H](c3nc(-c4cnn(Cc5ccccc5)c4)c4ccccn34)C2)cc1 [Compound 10-52]	1000 to 3000 nM
CN(C)c1ccc(NC(=O)N2CCC[C@@H](c3nc(-c4cnoc4)c4ccccn34)C2)cc1 [Compound 10-53]	500 to 1000 nM
CN(C)c1ccc(NC(=O)N2CCC[C@@H](c3nc(-c4cn(S(=O)(=O)c5ccccc5)c5ccccc45)c4ccccn34)C2)cc1 [Compound 10-54]	500 to 1000 nM
Cc1noc(C)c1-c1nc([C@@H]2CCCN(C(=O)Nc3ccc(N(C)C)cc3)C2)n2ccccc12 [Compound 10-55]	500 to 1000 nM
CC(=O)c1ccc(-c2nc([C@@H]3CCCN(C(=O)Nc4ccc(N(C)C)cc4)C3)n3ccccc23)s1 [Compound 10-57]	500 to 1000 nM
Cc1csc(-c2nc([C@@H]3CCCN(C(=O)Nc4ccc(N(C)C)cc4)C3)n3ccccc23)c1 [Compound 10-58]	500 to 1000 nM
CN(C)c1ccc(NC(=O)N2CCC[C@@H](c3nc(-c4cccc(S(C)(=O)=O)c4)c4ccccn34)C2)cc1 [Compound 10-59]	1000 to 3000 nM
COc1ncc(-c2nc([C@@H]3CCCN(C(=O)Nc4ccc(N(C)C)cc4)C3)n3ccccc23)cn1 [Compound 10-60]	> 3000 nM

Results, then the compound that gave them:

IC50	Structure (SMILES)
< 100 nM	CNc1ccc(NC(=O)N2CCC[C@@H](c3nc(-c4cccc(OC)c4)c4ccccn34)C2)cc1 [Compound 7-1, (R)-3-(1-(3-methoxyphenyl)imidazo[1,5-a]pyridin-3-yl)-N-(4-(methylamino)phenyl)piperidine-1-carboxamide]
100 to 500 nM	COc1cccc(-c2nc(-c3cccc(C(=O)Nc4cccc(N(C)C)c4)c3)n3ccccc23)c1 [Compound 8-1, N-(3-(dimethylamino)phenyl)-3-(1-(3-methoxyphenyl)imidazo[1,5-a]pyridin-3-yl)benzamide]
< 100 nM	COc1cccc(-c2nc(-c3cccc(C(=O)Nc4ccc(N(C)C)cc4)c3)n3ccccc23)c1 [Compound 8-2]
< 100 nM	COc1cccc(-c2nn(C3CCCN(C(=O)Nc4ccc(N(C)C)cc4)C3)c3ncccc23)c1 (stereo not shown) [Compound 9-1, N-(4-(dimethylamino)phenyl)-3-(3-(3-methoxyphenyl)-1H-pyrazolo[3,4-b]pyridin-1-yl)piperidine-1-carboxamide]
< 100 nM	COc1cccc(-c2nn(C3CCCN(C(=O)Nc4cccc(N(C)C)c4)C3)c3ncccc23)c1 (stereo not shown) [Compound 9-2]
500 to 1000 nM	CN(C)c1ccc(NC(=O)N2CCC[C@@H](c3nc(-c4ccccc4)c4ccccn34)C2)cc1 [Compound 10-2]
500 to 1000 nM	CN(C)c1ccc(NC(=O)N2CCC[C@@H](c3nc(-c4ccccc4C(F)(F)F)c4ccccn34)C2)cc1 [Compound 10-3]
< 100 nM	CCOc1cccc(-c2nc([C@@H]3CCCN(C(=O)Nc4ccc(N(C)C)cc4)C3)n3ccccc23)c1 [Compound 10-4]
100 to 500 nM	CN(C)c1ccc(NC(=O)N2CCC[C@@H](c3nc(-c4cccc(N(C)C)c4)c4ccccn34)C2)cc1 [Compound 10-6]
< 100 nM	CC(=O)c1cccc(-c2nc([C@@H]3CCCN(C(=O)Nc4ccc(N(C)C)cc4)C3)n3ccccc23)c1 [Compound 10-7]
100 to 500 nM	CN(C)c1ccc(NC(=O)N2CCC[C@@H](c3nc(-c4cccc(C(F)F)c4)c4ccccn34)C2)cc1 [Compound 10-16]
< 100 nM	COc1cc(OC)cc(-c2nc([C@@H]3CCCN(C(=O)Nc4ccc(N(C)C)cc4)C3)n3ccccc23)c1 [Compound 10-17]
100 to 500 nM	CC(O)c1cccc(-c2nc([C@@H]3CCCN(C(=O)Nc4ccc(N(C)C)cc4)C3)n3ccccc23)c1 (stereo partly shown) [Compound 10-18]
100 to 500 nM	CCc1ccccc1-c1nc([C@@H]2CCCN(C(=O)Nc3ccc(N(C)C)cc3)C2)n2ccccc12 [Compound 10-21]
100 to 500 nM	COc1cccc(-c2nc([C@@H]3CCCN(C(=O)NCCc4ccnn4C)C3)n3ccccc23)c1 [Compound 10-25]
100 to 500 nM	CN(C)c1ccc(NC(=O)N2CCC[C@@H](c3nc(C4=CCCCC4)c4ccccn34)C2)cc1 [Compound 10-44]
100 to 500 nM	CN(C)c1ccc(NC(=O)N2CCC[C@@H](c3nc(C4CCCCC4)c4ccccn34)C2)cc1 [Compound 10-45]
100 to 500 nM	CN(C)c1ccc(NC(=O)N2CCC[C@@H](c3nc(-c4csc5ccccc45)c4ccccn34)C2)cc1 [Compound 10-47]
100 to 500 nM	CN(C)c1ccc(NC(=O)N2CCC[C@@H](c3nc(-c4ccc(C(F)F)cc4)c4ccccn34)C2)cc1 [Compound 10-49]
< 100 nM	CN(C)c1ccc(NC(=O)N2CCC[C@@H](c3nc(-c4cccc5c4CCC5)c4ccccn34)C2)cc1 [Compound 10-50]
< 100 nM	CN(C)c1ccc(NC(=O)N2CCC[C@@H](c3nc(-c4cccc5c4OCO5)c4ccccn34)C2)cc1 [Compound 10-51]
